Measured values as given in patent publication US20050019746A1, “Apoptosis-related kinase/GPCRs” (EiRx Therapeutics Limited, priority 2003, published 2005).

What was measured:
Format in all cases: cell-based, human
[1] = system: HCT15 cells; test: 10-14 day Clonagenicity Assay (MTT), HCT15; details: independent experiment n = 1, dilution point of maximum toxicity
Excerpt: (§1) The Clonagenicity Assay represents a Cell Viability Screen that allows assessment of a cytotoxic insult at a variety of seed densities of cancer cell lines over an extended period of logarithmic growth, such that the definitive effect of the test substance can be accurately quantified. In this instance, the ‘cytotoxic insult’ to be tested involves the transfection of siRNA Oligomers to knockdown the expression of novel target Kinases and GPCRs as outlined previously. Cell number is quantified 10-14 days post siRNA transfection by MTT conversion as described in detail in Example 6.
(§2) The Clonagenicity Assay is optimised for each cell line examined with respect to seed number. The seed number varies for each cell line and accounts for the differences in cell size, growth rate and sensitivity to transfection-induced toxicity for each cell line pursued. Cells lines given as models for this example include HCT15, MCF7, A549, SKOV3, DU145, U251, PC3, A498 and HeLa. The siRNA oligo to Survivin serves as a positive control for toxicity in this assay and the missense control oligomer acts as a negative control as described in detail in Examples 5 and 6. The c-Raf, BCL2 and PI3K siRNA oligomers serve as additional controls as previously mentioned. The Clonagenicity assay is performed as outlined below.
(§3) Cells are seeded into a 96-well plate as described below and allowed to adhere overnight at 37° C. in a humidified atmosphere containing 5% CO2 in air. Wells are seeded with an appropriate cell number (cell line dependent) in Column 1 of the 96 well plates and this cell suspension is diluted 1 in 2 across the 96 well plates from Column 1 through to 6 (represented on the x-axis in results). Cells are next transfected with siRNA Oligomers, at a concentration of 2 μg/ml, against the genes of interest. Transfections continue for 4 hrs after which the transfection solution is removed and cells are refed with fresh medium and allow to incubate overnight. An additional media change@24 hrs post transfection is made to minimise toxicity of the transfection reagent. Cells are subsequently incubated for a 10-14 Day period post transfection at a 37° C. incubation as described above. Medium is renewed weekly following which MTT quantification is performed as described in Example 5.
(§4) To be considered cytotoxic, the siRNA Oligo against the gene target must induce a decreased viability in a cell line across at least 2 seed densities in the clonagenicity assay, such that a significant difference between the target gene and MS is observed i.e. no crossing of the Standard Error bars is detected. The average percentage viability, relative to missense, is recorded for the dilution point at which Maximum Toxicity is induced is recorded in Table 13.
(§5) Table 13 Clonagenicity Assay—This table gives the average percentage survival of the indicated cell lines relative to the missense in a clonagenicity assay, over 3 independent experiments. As an internal reference, the known survival gene ‘Survivin’, BCL2, c-Raf and PI3KR1 was also targeted by siRNA. When no Cytotoxic response is detected ‘-’ is recorded.

[2] = system: SKOV3 cells; test: 10-14 day Clonagenicity Assay (MTT), SKOV3; details: for percentage survival relative to the missense, n = 1: independent experiment n = 1, dilution point of maximum toxicity; for percentage survival relative to the missense, n = 3: independent experiment n = 3, dilution point of maximum toxicity
Excerpt: as §1, §2, §3, §4, §5

[3] = system: DU145 cells; test: 10-14 day Clonagenicity Assay (MTT), DU145; details: for percentage survival relative to the missense, n = 3: independent experiment n = 3, dilution point of maximum toxicity
Excerpt: as §1, §2, §3, §4, §5

[4] = system: U251 cells; test: 10-14 day Clonagenicity Assay (MTT), U251; details: for percentage survival relative to the missense, n = 1 / percentage survival relative to the missense, n = 3 / percentage survival relative to the missense, n = 2: U251, clonagenicity assay, dilution point of maximum toxicity; for percentage survival relative to the missense, n = 1: independent experiment n = 1; for percentage survival relative to the missense, n = 3: independent experiment n = 3; for percentage survival relative to the missense, n = 2: independent experiment n = 2
Excerpt: as §1, §2, §3
Note seed density decreases from 3.5 to 0.1×10^3 cells on the x-axis and the y-axis represents cell number as quantified by MTT conversion, 10-14 days post transfection. This decrease is substantially greater that with the apoptosis gene, Survivin. […] Note seed density decreases from 3.5 to 0.1×10^3 cells on the x-axis and the y-axis represents cell number as quantified by MTT conversion, 10-14 days post transfection.
as §4, §5

[5] = system: A498 cells; test: 10-14 day Clonagenicity Assay (MTT), A498; details: for percentage survival relative to the missense, n = 1: independent experiment n = 1, dilution point of maximum toxicity; for percentage survival relative to the missense, n = 3: independent experiment n = 3, dilution point of maximum toxicity
Excerpt: as §1, §2, §3, §4, §5

[6] = system: A549 cells; test: 10-14 day Clonagenicity Assay (MTT), A549; details: for percentage survival relative to the missense, n = 1: independent experiment n = 1, dilution point of maximum toxicity; for percentage survival relative to the missense, n = 3: independent experiment n = 3, dilution point of maximum toxicity
Excerpt: as §1, §2, §3, §4, §5

[7] = system: PC3 cells; test: 10-14 day Clonagenicity Assay (MTT), PC3; details: independent experiment n = 3, dilution point of maximum toxicity
Excerpt: as §1, §2, §3, §4, §5

Substance | percentage survival relative to the missense, n = 1 [1] [%] | percentage survival relative to the missense, n = 1 [2] [%] | percentage survival relative to the missense, n = 3 [2] [%] | percentage survival relative to the missense, n = 1 ([3]; independent experiment n = 1, dilution point of maximum toxicity) [%] | percentage survival relative to the missense, n = 2 ([3]; independent experiment n = 2, dilution point of maximum toxicity) [%] | percentage survival relative to the missense, n = 3 [3] [%] | percentage survival relative to the missense, n = 1 [4] [%] | percentage survival relative to the missense, n = 3 [4] [%] | percentage survival relative to the missense, n = 1 [5] [%] | percentage survival relative to the missense, n = 3 [5] [%] | percentage survival relative to the missense, n = 1 [6] [%] | percentage survival relative to the missense, n = 3 [6] [%] | percentage survival relative to the missense, n = 3 [7] [%] | percentage survival relative to the missense, n = 2 [4] [%] | viability/cytotoxicity in the Clonagenicity Assay ([4]; U251, 10-14 days post transfection, MTT, FIG. 35)
CNK/PRK (sense UCGUAGUGCUUGUACUUACtt; antisense GUAAGUACAAGCACUACGAtt; as printed in the source, key not given here) | 75.9 | 13.8 | 50.1 | 46.1 | 39 | 16.8 | 48.8 | 44.5 | 9.5 | 7.2 | – | – | – | – | –
CNK/PRK SEQ 2 (sense CAGAAAGACUGUGCACUACTT; antisense GUAGUGCACAGUCUUUCUGTT; chemistry not given here) | – | 65.7 | 72.2 | – | – | – | 35.2 | 57.5 | 20 | 8.2 | 62.5 | 25.6 | 28.3 | – | –
MKNK SEQ 2 (sense AUUGCAAGGAGGUUCCAUCTT; antisense GAUGGAACCUCCUUGCAAUTT; chemistry not given here) | – | – | 47.6 | – | – | 53.6 | – | 52.1 | 56.2 | 6 | – | 54.8 | 39.5 | 43.6 | –
MPSK1 SEQ 2 (sense GCCGACAUGCAUCGCCUCUTT; antisense AGAGGCGAUGCAUGUCGGCTT; chemistry not given here) | – | – | 73.8 | – | – | 63.4 | – | 59.3 | 39.3 | 8.9 | 39.1 | 26.1 | 16.7 | – | –
PSKH1 SEQ 2 (sense UUGGCCGAGGCAGCUUCAGTT; antisense CUGAAGCUGCCUCGGCCAATT; chemistry not given here) | – | 42.3 | 45.1 | – | – | 35.2 | 52.1 | 34.1 | 36 | 6 | 52.3 | 28 | 21.8 | 50.7 | –
siRNA FLJ13351: sense CACCAAUUAGUUCAAAGCUtt, antisense AGCUUUGAACUAAUUGGUGtt (sense CACCAAUUAGUUCAAAGCUTT; antisense AGCUUUGAACUAAUUGGUGTT; chemistry not given here) | – | – | – | – | – | – | – | – | – | – | – | – | – | – | does not induce cytotoxicity
siRNA PI3KR1: control siRNA, sense AUGAUCGAUGUGCACGUUUtt, antisense AAACGUGCACAUCGAUCAUtt (sense AUGAUCGAUGUGCACGUUUTT; antisense AAACGUGCACAUCGAUCAUTT; chemistry not given here) [reference compound] | – | 55.3 | 41.7 | – | – | 44.8 | 56.3 | 21.4 | – | 10 | – | 38.3 | – | – | –
